# Measured values reported in patent publication US9981025B2, “Anti-drug vaccines” (priority 2009, dated 2018).
# Assay: Cocaine degradation in mouse sera by mass spectrometry
# Assay type: in vitro ADME
# From the text: FIG. 15. Degradation of cocaine in non-immune mouse serum (NIS) and in non-immune mouse serum diluted in PBS (PBS/NIS) by mass spectrometry.
# FIGS. 16A-B. Rates of cocaine degradation in (A) non-immune mouse sera and (B) 5 immune mouse sera measured by a decrease in peak area (y-axis) of the cocaine peak generated by mass-spectrometry analysis.
# The kinetics of cocaine degradation in immune and non-immune mouse sera was then studied by mass spectroscopy to discern the pharmacological effects of anti-coc antibodies. Although degradation rates were nearly uniform in all non-immune mice (FIG. 16A), significant differences existed in the rates in immune mice, depending on the titer of anti-coc antibodies in the plasma (FIG. 16B).
compound,measurement,setting,value
COC(=O)[C@@H]1C2CCC(C[C@@H]1OC(=O)c1ccccc1)N2C (some centres unmarked) [cocaine],rate of cocaine degradation,"immune mouse sera, with increasing titer of anti-coc antibodies",degradation rates conversely decreased
same,rate of cocaine degradation,non-immune mouse serum diluted in PBS versus undiluted,decreased rate of cocaine degradation
